Test results taken from ChEMBL document CHEMBL1201862, “PubChem BioAssay data set” (2004).
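Cells were grown in 96-well plates and exposed to each compound for 48 hours at five concentrations; endpoints were interpolated linearly between bracketing concentrations, or set to the highest concentration if not reached. The concentration for 50% growth inhibition is given as GI50.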 Activity calls are given as the source filed them. Cut-off read from the data, not from the text of the source: active = GI50 up to about 1.1 µM and inactive = higher.

Experiments:
Assay in all cases: NCI tumour cell line growth inhibition, 48 h
[1] = tested on: T47D
[2] = tested on: HL-60
[3] = tested on: PC-3
[4] = tested on: SK-MEL-28
[5] = tested on: SR
[6] = tested on: HT-29
[7] = tested on: OVCAR-8
[8] = tested on: SK-MEL-5
[9] = tested on: HOP-92
[10] = tested on: CCRF-CEM
[11] = tested on: SNB-75
[12] = tested on: HCT-15
[13] = tested on: MCF7
[14] = tested on: UACC-62
[15] = tested on: EKVX
[16] = tested on: MDA-N
[17] = tested on: Hs-578T
[18] = tested on: UO-31
[19] = tested on: DU-145
[20] = tested on: NCI/ADR-RES
[21] = tested on: NCI-H23
[22] = tested on: SW-620
[23] = tested on: TK-10
[24] = tested on: HOP-62
[25] = tested on: BT-549
[26] = tested on: NCI-H522
[27] = tested on: HCC 2998
[28] = tested on: A498
[29] = tested on: M14
[30] = tested on: SN12C
[31] = tested on: NCI-H226
[32] = tested on: SF-539
[33] = tested on: NCI-H460
[34] = tested on: SK-OV-3
[35] = tested on: SF-295
[36] = tested on: SF-268
[37] = tested on: COLO 205
[38] = tested on: U-251
[39] = tested on: K562
[40] = tested on: LOX IMVI
[41] = tested on: MOLT-4
[42] = tested on: MDA-MB-231
[43] = tested on: UACC-257
[44] = tested on: IGROV-1
[45] = tested on: OVCAR-3
[46] = tested on: OVCAR-5
[47] = tested on: MDA-MB-435
[48] = tested on: 786-0
[49] = tested on: CAKI-1
[50] = tested on: ACHN
[51] = tested on: RPMI-8226
[52] = tested on: Malme-3M
[53] = tested on: KM12
[54] = tested on: SNB-19
[55] = tested on: HCT-116
[56] = tested on: SK-MEL-2
[57] = tested on: A549

Compound: COc1cc(C2c3cc4c(cc3C(O)C3CCC(=O)N23)OCO4)cc(OC)c1OC (configuration not stated)
- GI50 [1]: > 100 µM (inactive)
- GI50 [2]: 17.1 µM (inactive)
- GI50 [3]: 54.3 µM (inactive)
- GI50 [4]: 16.8 µM (inactive)
- GI50 [5]: 39.9 µM (inactive)
- GI50 [6]: 29.9 µM (inactive)
- GI50 [7]: 37.2 µM (inactive)
- GI50 [8]: 10.9 µM (inactive)
- GI50 [9]: 33 µM (inactive)
- GI50 [10]: 29.9 µM (inactive)
- GI50 [11]: 26.7 µM (inactive)
- GI50 [12]: 31 µM
- GI50 [13]: 16.5 µM (inactive)
- GI50 [14]: 40.8 µM (inactive)
- GI50 [15]: > 100 µM (inactive)
- GI50 [16]: 5.56 µM (inactive)
- GI50 [17]: 34.5 µM (inactive)
- GI50 [18]: 15.7 µM (inactive)
- GI50 [19]: 51.8 µM (inactive)
- GI50 [20]: 53 µM (inactive)
- GI50 [21]: 53 µM (inactive)
- GI50 [22]: 36.6 µM (inactive)
- GI50 [23]: 69.2 µM (inactive)
- GI50 [24]: 39.2 µM (inactive)
- GI50 [25]: 14.9 µM (inactive)
- GI50 [26]: 16.9 µM (inactive)
- GI50 [27]: 34.4 µM (inactive)
- GI50 [28]: 42.6 µM (inactive)
- GI50 [29]: 38.9 µM (inactive)
- GI50 [30]: 58.7 µM (inactive)
- GI50 [31]: 37.5 µM (inactive)
- GI50 [32]: > 10 µM (inactive)
- GI50 [33]: 39.4 µM (inactive)
- GI50 [34]: 80.2 µM (inactive)
- GI50 [35]: 6.68 µM (inactive)
- GI50 [36]: 49.9 µM (inactive)
- GI50 [37]: 37 µM (inactive)
- GI50 [38]: 26.1 µM (inactive)
- GI50 [39]: 26.5 µM (inactive)
- GI50 [40]: 52.4 µM (inactive)
- GI50 [41]: 32.2 µM (inactive)
- GI50 [42]: > 100 µM (inactive)
- GI50 [43]: > 100 µM (inactive)
- GI50 [44]: 39.5 µM (inactive)
- GI50 [45]: 31.6 µM (inactive)
- GI50 [46]: 43.2 µM (inactive)
- GI50 [47]: 3.54 µM (inactive)
- GI50 [48]: 52.5 µM (inactive)
- GI50 [49]: 28.2 µM (inactive)
- GI50 [50]: 40 µM (inactive)
- GI50 [51]: 27.1 µM (inactive)
- GI50 [52]: > 100 µM (inactive)
- GI50 [53]: 12.6 µM (inactive)
- GI50 [54]: 29.9 µM (inactive)
- GI50 [55]: 24.3 µM (inactive)
- GI50 [56]: 27 µM (inactive)
- GI50 [57]: 39.3 µM (inactive)
